pEC50, pIC50: −log10 of the molar value.
Assays:
BTK = biological target: T1, BTK (Homo sapiens, UniProt Q06187); assay: BTK kinase electrophoretic mobility shift assay (MSA); assay type: biochemical; conditions: 50 μM ATP, 0.5 nM BTK enzyme (Nanosyn-293HEK, WT), 3 hours at 25° C.; all examples except 50, 51, 62 and 63; read-out: BTK IC50
T1 construct: purchased Nanosyn, Santa Clara, Calif; host or cells: 293HEK

[1] = biological target: T2, Phosphorylation of Y223 of BTK (Homo sapiens, UniProt Q06187); assay: Whole blood compound screening, phosphorylation of Y223 site of BTK (MSD assay); assay type: cell-based; conditions: healthy human whole blood, 2 hours at 37° C., 3 separate donors; read-out: WB BTK-pY223 EC50
T2 construct: host or cells: healthy human whole blood, 3 donors
How it was run: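 Heparinized human whole blood from 3 donors treated 2 h at 37 °C with compounds (8 points, top 10 μM, 1:4 dilution, 0.2% DMSO), then lysed. BTK pY223 quantified by MSD sandwich immunoassay (anti-BTK capture, anti-pY223 detection); EC50 from concentration response.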

[2] = test system: recombinant human CYP1A2, 2B6, 2C8, 2C9, 2C19, 2D6, 3A4, and FMO3; assay: Human recombinant CYP and FMO3 phenotyping; assay type: in vitro ADME; conditions: of CYPs tested (1A2, 2B6, 2C8, 2C9, 2D6, 3A4) and FMO3
Method: The involvement of CYPs and FMO3 in the metabolism of Compound 6 was evaluated using recombinant human CYP1A2, 2B6, 2C8, 2C9, 2C19, 2D6, 3A4, and FMO3 (CYPs and FMO3 from Corning Life Sciences). Incubations contained 0.5 μM of Compound 6, 100 pmol/mL of each CYP isoform, or 0.5 mg/mL of FMO3 isoform, and 1 mM NADPH cofactor in 50 mM potassium phosphate buffer at pH 7.4. All incubations were pre-warmed at 37° C. for 10 minutes, followed by addition of cofactor to initiate the reaction. Incubations were carried out for 60 minutes at 37° C. At each time point (0, 5, 10, 20, 30 and 60 minutes), an aliquot of sample in the incubation pleases was taken and dispersed into a quench plate containing 3-fold volume of acetonitrile and carbutamide as an internal standard. The samples were centrifuged, and the supernatant was analyzed using LC-MS/MS.
Quantitation of the substrate depletion in recombinant CYPs and FMO3 phenotyping, chemical inhibition in hepatocytes, and enzyme kinetics assays were analyzed by monitoring substrate depletion using LC-MS/MS.
The intrinsic clearance of Compound 6 in rCYP and hepatocytes was determined by integrating the parent peak on the chromatograms, and the extent of substrate depletion measured by comparing parent peak area loss over time. […]

T1 sequence (Q06187 whole entry): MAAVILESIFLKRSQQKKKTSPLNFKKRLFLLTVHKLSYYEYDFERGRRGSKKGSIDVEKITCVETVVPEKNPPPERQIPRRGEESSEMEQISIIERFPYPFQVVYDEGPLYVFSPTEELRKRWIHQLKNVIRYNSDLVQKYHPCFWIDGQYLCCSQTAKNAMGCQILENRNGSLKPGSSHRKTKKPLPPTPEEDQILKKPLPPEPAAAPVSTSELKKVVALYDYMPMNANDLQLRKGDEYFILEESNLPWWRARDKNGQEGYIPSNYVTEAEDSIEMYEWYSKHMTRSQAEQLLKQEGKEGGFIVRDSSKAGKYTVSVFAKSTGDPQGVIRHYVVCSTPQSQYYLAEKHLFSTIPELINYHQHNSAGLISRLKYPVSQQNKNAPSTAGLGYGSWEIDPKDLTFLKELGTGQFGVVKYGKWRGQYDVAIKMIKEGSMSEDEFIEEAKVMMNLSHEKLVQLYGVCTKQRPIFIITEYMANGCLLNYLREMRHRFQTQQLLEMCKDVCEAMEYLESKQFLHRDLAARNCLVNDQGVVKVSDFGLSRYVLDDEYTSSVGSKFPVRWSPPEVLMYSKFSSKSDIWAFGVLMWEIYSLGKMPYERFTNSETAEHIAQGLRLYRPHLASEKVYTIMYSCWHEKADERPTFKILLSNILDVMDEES
T2 sequence (Q06187 whole entry): as above

Structure (SMILES): C=CC(=O)N1CCN([C@@H]2CCNc3c2nn(-c2ccc(Oc4ccccc4)cc2)c3C(N)=O)CC1 [Example 6, (7R)-2-(4-phenoxyphenyl)-7-[4-(prop-2-enoyl)piperazin-1-yl]-4,5,6,7-tetrahydro-2H-pyrazolo[4,3-b]pyridine-3-carboxamide]
- pIC50 (BTK): 8.96
- pEC50 [1]: 7.62
- major contributing enzyme in metabolism [2]: CYP3A4 was identified as the major contributing enzyme

Reference: US20220213092A1, “BICYCLIC PYRAZOLE BRUTON'S TYROSINE KINASE INHIBITORS” (AbbVie Inc., priority 2020, published 2022)
